Where a name gives a salt, the structure may show the parent alone.
System: patients with pupil sizes of at least 7 mm in diameter under dim light conditions
Test: Pupil diameter after one drop of 0.2%, 0.4% or 0.8% (w/v) phentolamine mesylate solution (clinical study, NeurOptics pupilometer)
Assay type: in vivo, human
Description: Reduction in pupil diameter can be analyzed and characterized using procedures such as those described below in which a phentolamine mesylate solution was administered to patients' eyes and change in pupil diameter was measured and characterized. […] The phentolamine mesylate solution contained either 0.2% (w/v) phentolamine mesylate, 0.4% (w/v) phentolamine mesylate, or 0.8% (w/v) phentolamine mesylate.
Sixteen patients were randomized into four groups (of four subjects each). Each group was treated on three successive study visits separated by at least 4 days with one drop of ophthalmic oxymetazoline solution (Visine LR®) in each eye followed by one drop test article in each eye. The test article was a 0.2% (w/v) phentolamine mesylate solution, 0.4% (w/v) phentolamine mesylate solution, 0.8% (w/v) phentolamine mesylate solution, or placebo. Test articles contained the designed amount of phentolamine mesylate in a solution of Tears Naturale II® (from Alcon Labs). Placebo was just Tears Naturale II® (from Alcon Labs). Tears Naturale II® (from Alcon Labs) contains Dextran 70 (0.1% by weight), Hydroxypropyl Methylcellulose 2910 (0.3% by weight), Polyquaternium-1 (0.001% by weight), potassium chloride, water (purified), sodium borate, sodium chloride, and hydrochloric acid and/or sodium hydroxide as necessary to adjust the pH. The patients' pupil diameters were recorded at baseline (i.e., prior to treatment administration), and at 30 minutes, 1 hour, 2 hours, 4 hours, and 8 hours after administration of test articles. Total study duration was approximately nine hours.
Pupil diameters were measured to within 0.1 mm for each eye at baseline and each subsequent time point using a NeurOptics™ pupilometer. Comparisons of changes in mean values within treatment groups were tested for significance using two-tailed paired two sample t-tests with a threshold for significance set at p<0.01 (Bonferroni Correction for multiple paired t-tests). Differences between treatment groups with respect to mean values for pupil size over the course of the study were tested for significance using repeated measure ANOVA (which discards data from subjects lacking any data points). Differences in means between treatment groups at individual time points were tested for significance using one-way ANOVA.

SMILES	mean pupil diameters compared to placebo (ad hoc Fisher's tests) (any concentration, 2, 4 and 8 hours)	mean changes in pupil diameters from baseline as a function of time (over the course of the study)	differences in mean pupil diameters between different doses (any time point)	mean pupil diameters (one hour post treatment)
Cc1ccc(N(CC2=NCCN2)c2cccc(O)c2)cc1 [phentolamine mesylate]	significant differences in mean pupil diameters	significant reductions in pupil size	–	–
Cc1ccc(N(CC2=NCCN2)c2cccc(O)c2)cc1 [phentolamine]	–	–	no statistically significant differences	lower
